{"source": "patent US12257284B2", "about": "“Lantibiotics, lantibiotic-producing bacteria, compositions and methods of production and use thereof” (MEMORIAL SLOAN-KETTERING CANCER CENTER, priority 2017, dated 2025)", "test_system": "VRE", "assay": "VRE cultured in filtered culture supernatants or size fractions, VRE CFU quantitated", "assay_type": "cell-based, vancomycin-resistant Enterococcus", "settings": "VRE 6 hours", "experimental": "10^7 CFU/mL B. producta or C. bolteae±10^3 CFU/mL VRE were cultured in BHIS for 6 hours anaerobically at 37° C. The culture supernatants were filtered through a 0.22 μm filter. 10^3 CFU/mL VRE were cultured in the filtered culture supernatants for 2, 6, or 24 hours anaerobically at 37° C. […] 10^7 CFU/mL B. producta, C. bolteae, P. distasonis, or B. sartorii were cultured in BHI overnight (at least 8 hours) anaerobically at 37° C. The culture supernatants were filtered through a 0.22 μm filter and diluted 1:2 in fresh BHIS. 10^3 CFU/mL VRE were cultured in the filtered culture supernatants for 2, 6, or 24 hours anaerobically at 37° C.\n10^7 CFU/mL B. producta was cultured for 0, 6, 24 hours in BHIS anaerobically at 37° C. Culture growth was verified by quantitating B. producta CFU at 6, 24, 48, and 72 hours. […] The culture supernatant at 0, 6, and 24 hours was filtered through a 0.22 μm filter, then concentrated by ultrafiltration with a molecular weight cut off greater than 100 kDa. The concentrated culture supernatant was then diluted to the original volume with fresh BHIS culture medium. Concentrated/diluted medium was inoculated with 10^3 CFU/mL VRE and cultured anaerobically at 37° C. for 6, 24, 48 hours.\n10^7 CFU/mL B. producta were cultured for 24 hours anaerobically at 37° C. in BHIS. […]"}
{"substance": "nisin", "values": [{"measurement": "VRE growth (VRE CFU) in filtered culture supernatant or nisin medium", "setting": "filtered supernatant, nisin extract powder 1 mg per 1 mL medium, FIG. 31 left panel", "result": "inhibited VRE"}, {"measurement": "VRE growth (VRE CFU) with greater than 100 kDa concentrated samples", "setting": "samples concentrated by ultrafiltration, cut off greater than 100 kDa, diluted to original volume, FIG. 31 right panel", "result": "inhibited VRE"}]}
